According to patent US8192717B2, “Composition for diagnosing amyloid-related diseases” (Nagasaki University, priority 2004, dated 2012):

Test: Radioactivity distribution in mouse body after intravenous administration of radioiodine labeled forms
Conditions: mouse, intravenous administration, mean (SD) of 3 to 5 mice
Method: Thereafter, 100 μl (0.5 to 1 μCi) of each labeled form was intravenously administered to each group consisting of three to five 5-week-old ddY male mice (25 to 30 g). 2, 10, 30, and 60 minutes after the intravenous administration, such mice were decapitated, and blood was collected. Thereafter, organs were excised, and the weight and radioactivity thereof were then measured.

| Distribution of radioactivity, Blood (2 min after administration) | Distribution of radioactivity, Blood (10 min after administration) | Distribution of radioactivity, Blood (30 min after administration) | Distribution of radioactivity, Blood (60 min after administration) | Distribution of radioactivity, Brain (2 min after administration) | Distribution of radioactivity, Brain (10 min after administration) | Distribution of radioactivity, Brain (30 min after administration) | Distribution of radioactivity, Brain (60 min after administration) | Distribution of radioactivity, Heart (2 min after administration) | Distribution of radioactivity, Heart (10 min after administration) | Distribution of radioactivity, Heart (30 min after administration) | Distribution of radioactivity, Heart (60 min after administration) | Distribution of radioactivity, Intestine (2 min after administration) | Distribution of radioactivity, Intestine (10 min after administration) | Distribution of radioactivity, Intestine (30 min after administration) | Distribution of radioactivity, Intestine (60 min after administration) | Distribution of radioactivity, Kidney (2 min after administration) | Distribution of radioactivity, Kidney (10 min after administration) | Distribution of radioactivity, Kidney (30 min after administration) | Distribution of radioactivity, Kidney (60 min after administration) | SMILES | further results |
| --- | --- | --- | --- | --- | --- | --- | --- | --- | --- | --- | --- | --- | --- | --- | --- | --- | --- | --- | --- | --- | --- |
| 1.87 (0.18) % ID/g | 1.07 (0.08) % ID/g | 1.20 (0.15) % ID/g | 1.15 (0.16) % ID/g | 3.22 (0.15) % ID/g | 3.61 (0.60) % ID/g | 1.89 (0.21) % ID/g | 0.99 (0.10) % ID/g | 5.63 (0.80) % ID/g | 2.47 (0.14) % ID/g | 1.69 (0.06) % ID/g | 1.07 (0.17) % ID/g | 2.24 (0.24) % ID/g | 6.56 (0.83) % ID/g | 12.97 (1.15) % ID/g | 18.64 (2.05) % ID/g | 8.33 (1.47) % ID/g | 4.31 (0.28) % ID/g | 3.40 (0.31) % ID/g | 2.32 (0.45) % ID/g | CN(C)c1ccc(-c2cc(=O)c3cc([125I])ccc3o2)cc1 [[125I]Compound 11] | Distribution of radioactivity, Liver (2 min after administration): 15.41 (0.98) % ID/g; Distribution of radioactivity, Liver (10 min after administration): 21.85 (2.14) % ID/g; Distribution of radioactivity, Liver (30 min after administration): 15.71 (0.96) % ID/g; Distribution of radioactivity, Liver (60 min after administration): 12.40 (2.38) % ID/g; Distribution of radioactivity, Spleen (2 min after administration): 2.72 (0.20) % ID/g; Distribution of radioactivity, Spleen (10 min after administration): 1.92 (0.33) % ID/g; Distribution of radioactivity, Spleen (30 min after administration): 1.58 (0.31) % ID/g; Distribution of radioactivity, Spleen (60 min after administration): 1.18 (0.17) % ID/g |
| 14.54 (3.37) % ID/g | 3.50 (1.13) % ID/g | 1.5 (0.22) % ID/g | 0.80 (0.21) % ID/g | 0.70 (0.10) % ID/g | 0.72 (0.14) % ID/g | 1.02 (0.23) % ID/g | 0.77 (0.25) % ID/g | 8.89 (1.94) % ID/g | 4.00 (0.93) % ID/g | 2.36 (0.51) % ID/g | 1.42 (0.38) % ID/g | 1.52 (0.09) % ID/g | 4.8 (0.74) % ID/g | 11.98 (1.26) % ID/g | 14.91 (4.18) % ID/g | 9.04 (1.72) % ID/g | 5.58 (1.07) % ID/g | 5.16 (1.06) % ID/g | 3.94 (1.25) % ID/g | CN(C)c1ccc(C=Cc2cc(=O)c3cc([125I])ccc3o2)cc1 [[125I]Compound 48] | Distribution of radioactivity, Liver (2 min after administration): 20.56 (3.98) % ID/g; Distribution of radioactivity, Liver (10 min after administration): 15.09 (2.63) % ID/g; Distribution of radioactivity, Liver (30 min after administration): 12.82 (1.96) % ID/g; Distribution of radioactivity, Liver (60 min after administration): 8.79 (1.80) % ID/g; Distribution of radioactivity, Spleen (2 min after administration): 5.09 (0.75) % ID/g; Distribution of radioactivity, Spleen (10 min after administration): 4.06 (0.66) % ID/g; Distribution of radioactivity, Spleen (30 min after administration): 3.15 (0.70) % ID/g; Distribution of radioactivity, Spleen (60 min after administration): 2.82 (0.36) % ID/g |
